In patent publication US20030083483A1, “Molecular interaction sites of vimentin RNA and methods of modulating the same” (priority 1999, published 2003):
Read-outs that look alike come from different tables or passages of the source.

How the values were obtained:
[1] = biological target: 27-mer model RNA sequence of the 16S A-site; assay: MASS mass spectrometry binding assay with 16S A-site 27-mer RNA; set-up: species or system prokaryotic
Protocol: (§1) The compounds are screened for binding affinity using MASS or conventional high-throughput functional screens. The best scoring compounds from docking a 256-member library against the 16S A-site ribosomal RNA structure are shown in the table 5 below. The MASS assay was performed with the 27-mer model RNA sequence of the 16S A-site whose NMR structure has been determined. The transcription/translation assay was based on expression of a luciferase plasmid.
A preferred first step of MASS screening involves mixing the RNA target (or targets) with a combinatorial library of ligands designed to bind to a specific site on the target molecule(s). Specific noncovalent complexes formed in solution between the target(s) and any library members are transferred into the gas phase and ionized by ESI. As described herein, from the measured mass difference between the complex and the free target, the identity of the binding ligand can be determined. The dissociation constant of the complex can be determined in two ways: if a ligand with a known binding affinity for the target is available, a relative Kd can be measured by using the known ligand as an internal control and measuring the abundance of the unknown complex to the abundance of the control, alternatively, if no internal control is available, Kd's can be determined by making a series of measurements at different ligand concentrations and deriving a Kd value from the “titration” curve.
In a direct determination of solution phase dissociation constants (Kd's) by mass spectrometry, ESI-MS measurements of a solution containing a fixed concentration of RNA at different concentrations of ligand were obtained. By measuring the ratio of bound:unbound RNA at varying ligand concentrations, the Kd was determined by 1/slope of the “titration curve”. The MS derived value of 110 nM is in good agreement with previously reported literature value of 200 nM.
All mass spectrometry experiments were performed using an Apex II 70e electrospray ionization Fourier transform ion cyclotron resonance mass spectrometer (Bruker Daltonics, Billerica) employing an actively shielded 7 tesla superconducting magnet. RNA solutions were prepared in 50 mM NH4OAc (pH 7), mixed 1:1 v:v with isopropanol to aid desolvation, and infused at a rate of […] using a syringe pump. Ions were formed in a modified electrospray source (Analytica, Branford) employing an off axis, grounded electrospray probe positioned ca. 1.5 cm from the metalized terminus of the glass desolvation capillary biased at 5000 V. A counter-current flow of dry […] gas heated to 225C was employed to assist in the desolvation process. Ions were accumulated in an external ion reservoir comprised of an RF-only hexapole, a skimmer cone, and an auxiliary electrode for 1000 ms prior to transfer into the trapped ion cell for mass analysis. Each spectrum was the result of the coaddition of 16 transients comprised of […] acquired over a 90,909 kHz bandwidth resulting in a 700 ms detection interval. All aspects of pulse sequence control, data acquisition, and post acquisition processing were performed using a Bruker Daltonics datastation running XMASS version 4.0 on a Silicon Graphics (San Jose, Calif.) R5000 computer.
Mass spectrometry experiments were performed in order to detect complex formation between a library containing five aminoglycosides (Sisomicin (Sis), Tobramycin (Tob), Bekanomycin (Bek), Paromomycin (PM), and Livodomycin (LV)) and two RNA targets simultaneously. Signals from the (M-5H+)^5− charge states of free 16S and 18S RNAs are detected at m/z 1801.515 and 1868.338, respectively. The mass spectrometric assay reproduces the known solution binding properties of aminoglycosides to the 16S A site model and an 18S A site model with a neutral mass linker. Consistent with the higher binding affinity of theses aminoglycosides for the 16S A-site relative to the 18S A-site, aminoglycoside complexes are observed only with the 16S rRNA target. […]

[2] = test system: protein synthesis (luciferase reporter); assay: transcription/translation assay based on expression of a luciferase plasmid; type: biochemical; conditions: unit printed only in the Paromomycin cell and b169
Protocol: as §1

[3] = test system: 18S A site model; assay: ESI-FTICR mass spectrometric complex detection with 18S A-site model RNA; type: binding, eukaryotic; conditions: mixture of five aminoglycosides, 16S and 18S targets simultaneously
Protocol: Paromomycin, lividomycin (MW=761.354 Da), sisomicin (MW=447.269 Da), tobramycin (MW=467.2591 Da), and bekanamycin (MW=483.254 Da) were obtained from Sigma (St. Louis, Mo.) and ICN (Costa Mesa, Calif.) and were dissolved to generate 10 mM stock solutions. 2′ methoxy analogs of RNA constructs representing the prokaryotic (16S) rRNA and eukaryotic (18S) rRNA A-site were synthesized in house and precipitated twice from 1 M ammonium acetate following deprotection with ammonia (pH 8.5). The mass-tagged constructs contained an 18-atom mass tag (C12H2509) attached to the 5′-terminus of the RNA oligomer through a phosphodiester linkage.
All mass spectrometry experiments were performed using an Apex II 70e electrospray ionization Fourier transform ion cyclotron resonance mass spectrometer (Bruker Daltonics, Billerica) employing an actively shielded 7 tesla superconducting magnet. […]
Mass spectrometry experiments were performed in order to detect complex formation between a library containing five aminoglycosides (Sisomicin (Sis), Tobramycin (Tob), Bekanomycin (Bek), Paromomycin (PM), and Livodomycin (LV)) and two RNA targets simultaneously. Signals from the (M-5H+)^5− charge states of free 16S and 18S RNAs are detected at m/z 1801.515 and 1868.338, respectively. […]

In the case of `NC[C@@H]1O[C@H](O[C@H]2[C@@H](O)[C@H](O[C@@H]3[C@@H](O)[C@H](N)C[C@H](N)[C@H]3O[C@H]3O[C@H](CO)[C@@H](O)[C@H](O)[C@H]3N)O[C@@H]2CO)[C@H](N)[C@@H](O)[C@@H]1O` [Paromomycin], the Kd ([1]; 16S A site 27mer, ESI-MS titration, read-out: KD measured by mass spectrometry) is reported as 110 nM, the Kd ([1]; 27-mer model RNA of the 16S A-site, unit printed only in the Paromomycin cell and b169, read-out: MASS KD) is reported as 500 nM and the “complexes detected with the 16S A site 27mer RNA” value ([1]; ESI-FTICR, mixture of five aminoglycosides, 16S and 18S targets simultaneously) is reported as “High affinity complexes”. The “Activity: Inhibition of protein synthesis in transcription/translation assay for luciferase reporter” value [2] was 0.3 µM and the “complexes with the 18S A site model” value [3] was “absence”.
